From patent publication US7087658B2, “Water-soluble coating agents bearing initiator groups” (SurModics, Inc., priority 1999, dated 2006)

How the values were obtained:
[1] = test system: Beta-Thromboglobulin (β-TG) released from the α-granules of platelets; assay: Beta-Thromboglobulin assay; assay type: cell-based, human; settings: coated polyethylene; PRP, one hour at room temperature; enzyme immunoassay
Protocol: The surface-modified materials were incubated with PRP and the plasma was assayed for the Beta-Thromboglobulin (β-TG) released from the α-granules due to activation of the platelets. Blood was collected fresh from human volunteers into 3.8% (v/v) sodium citrate using 9:1 ratio of blood to anticoagulant. The blood was centrifuged at 1200 rpm for 15 minutes to separate PRP from blood. The PRP was collected and kept at room temperature until used (less than 1 h). The test samples (½-inch circles) were placed in a 6-well plate, 1 sample per well. The PRP solution was added onto the top of the samples until the entire surface of the sample was covered, and the samples incubated one hour at room temperature with no agitation. Control samples of plasma, for initial β-TG levels, were taken prior to incubation.
After incubation with the samples, prostaglandin E1 (Sigma, product no. P5515) was added to each sample and the plasma was assayed with an enzyme immunoassay kit (Asserachrom American Bioproduct, product no. 0250) for the amount of β-TG released.

[2] = test system: intrinsic and common pathways of coagulation; assay: Partial thromboplastin time (PTT) test; assay type: biochemical
Protocol: A useful test in determining the hemocompatibility of a reagent is the partial thromboplastin time (PTT) test. The PTT is a test of the intrinsic (factors VIII, IX, XI, and XII) and common (fibrinogen, prothrombin, factors V and X) pathways of coagulation. A mixture of plasma and phospholipid platelet substitute (rabbit brain cephalin) is recalcified and the time required for the appearance of fibrin strands measured.
The PTT was tested to determine whether Compound I or Compound II have the ability to extend the control PTT. A test tube of rabbit brain cephalin (Sigma #RBC) in 0.85% NaCl and a test tube of 0.02 M CaCl2 was brought to 37° C. in a water bath. Dade Ci-trol coagulation control lyophilized plasma (Dade International, Inc., product no. 34224-10) was reconstituted in sterile deionized water. In 10×75 mm glass test tubes, 100 μl reconstituted plasma and 100 μl RBC were mixed and incubated at 37° C. in a water bath for 5 minutes. Next, 50 μl of sample (deionized water, a photocrosslinkable polyvinylpyrrolidone (available from SurModics, Inc., product no. PVO5), or Compound I or II) was added and mixed. While simultaneously starting a stop watch, 100 μl of 0.02 M CaCl2 was added to initiate the clotting cascade. After 40 seconds had passed, the test tubes were shaken lightly, observed for fibrin formation, and the number of seconds was recorded.
All samples were tested in duplicate. The appropriate control PTT, depending upon what solvent in which the reagent was dissolved, was subtracted from the average PTT for the reagent to give the time the control PTT was extended.

platelets = assay: Platelet attachment and activation from platelet rich plasma (SEM); assay type: cell-based, human; settings: coated polyethylene (PE); for Platelet activation, spreading and aggregation: SEM
Protocol: The surface-modified materials were incubated with platelet rich plasma (PRP), observed with a scanning electron microscope and photographed to determine the influence of surface chemistry on platelet attachment and activation.
Blood was collected fresh from human volunteers into 3.8% (v/v) sodium citrate solution using 9:1 ratio of blood to anticoagulant. The blood was centrifuged at 1200 rpm for 15 minutes to separate PRP from blood. The PRP was collected and kept at room temperature until used (less than 1 hour).
The test samples (½-inch circles) were placed in a 6-well plate, 1 sample per well. The PRP solution was added onto the top of the samples until the entire surface of the sample was covered, and the samples were incubated one hour at room temperature with no agitation. To quantify the platelet solution, a sample of the PRP was taken and diluted 1:100 with 1% (v/v) Oxalate Ammonium. A capillary tube was used to transfer a small amount of solution to a hemacytometer, and the sample was incubated in a covered petri dish for 30 minutes at room temperature for the platelets to settle.
The platelets were counted under a phase contrast microscope and determined to be approximately 50–100×10^9 platelets/L. After incubation, the PRP was removed carefully by aspiration and 3 mls of Tyrode's buffer (138-mM NaCl, 2.9-mM KCl, 12-mM sodium bicarbonate, pH 7.4) gently added to each well. The plates were agitated slightly on an orbital shaker for 15 minutes; the solution was changed and the wash repeated. The wash solution was aspirated and 2.0 ml of Karnovsky's fixative (25-mls formaldehyde, 5-mls 25% glutaraldehyde, 20-mls of a solution of 23% NaH2PO4—H2O, 77% NaHPO4 anhydrous) were added to each well. The plate was wrapped with parafilm and incubated overnight at room temperature with slight agitation.
The fixative was aspirated off and the samples were washed 3 times each with pure water, 15 minutes each. […] The platelets were counted and judged by degree of activation and morphology.

[3] = final concentration 0.7 mg/ml, solvent H2O
[4] = final concentration 1.43 mg/ml, solvent H2O
[5] = final concentration 0.7 mg/ml, solvent 50% IPA
[6] = final concentration 1.29 mg/ml, solvent 50% IPA

| SMILES | β-TG release [1] | Average PTT [2, 3] [s] | Formed Clot [2, 3] | Time Extended Beyond Control PTT ([2]; final concentration 0.7 mg/ml, solvent H2O, DI H2O control subtracted) [s] | Average PTT [2, 4] [s] | Formed Clot [2, 4] | Time Extended Beyond Control PTT ([2]; final concentration 1.43 mg/ml, solvent H2O, DI H2O control subtracted) [s] | Platelet activation, spreading and aggregation (platelets) | Morphology of platelets attached to modified surfaces (platelets; SEM photographs) | Average PTT [2, 5] [s] | Formed Clot [2, 5] | Time Extended Beyond Control PTT ([2]; final concentration 0.7 mg/ml, solvent 50% IPA, 50% IPA control subtracted) [s] | Average PTT [2, 6] [s] | Formed Clot [2, 6] | Time Extended Beyond Control PTT ([2]; final concentration 1.29 mg/ml, solvent 50% IPA, 50% IPA control subtracted) [s] | Extension of the 50% IPA control PTT ([2]; higher of the two final concentrations tested, 50% IPA control) [h] | Extension of PTT from water control ([2]; higher of the two final concentrations tested, water control) [h] |
| --- | --- | --- | --- | --- | --- | --- | --- | --- | --- | --- | --- | --- | --- | --- | --- | --- | --- |
| O=C(c1ccccc1)c1ccc(COc2cc(S(=O)(=O)[O-])cc(S(=O)(=O)[O-])c2OCc2ccc(C(=O)c3ccccc3)cc2)cc1.[K+].[K+] [Compound I, 4,5-bis(4-benzoylphenylmethyleneoxy) benzene-1,3-disulfonic acid disodium salt] | lower levels of β-TG release than the uncoated and PVO5 controls | 117 | yes | 64 | >3600 | no | >3600 | less activation and spreading | Full coverage, many aggregates, little |  |  |  |  |  |  |  |  |
| O=C(c1ccccc1)c1ccc(COc2cc(S(=O)(=O)[O-])c(OCc3ccc(C(=O)c4ccccc4)cc3)cc2S(=O)(=O)[O-])cc1.[K+].[K+] [Compound II, 2,5-bis(4-benzoylphenylmethyleneoxy) benzene-1,4-disulfonic acid dipotassium salt] |  |  |  |  |  |  |  | some spreading pseudopodia, but little or no aggregating |  | 134 | yes | 56 | 3600 | yes | 3522 | 1 | ≥ 1 |
